What was measured:
[1] = Solubility on preparing DMSO stock solutions; assay type: physicochemical; conditions: dissolved to 30 mM
Description: (§1) All tested compounds were dissolved in DMSO to obtain stock solutions with a final concentration of 50 mM (3a, 3b, 3e), 40 mM (3f, 3g, 3i, 3j), and 35 mM (3h, 3k). […] In the next step, 10 µL of each stock solution was added to 990 µL of supplemented medium.

MTT assay, NHDF = assay type: cell-based, human; conditions: human, NHDF cells (normal human dermal fibroblasts), 0.004 mM to 0.5 mM
Source text: As mentioned earlier, MMP-13 is overexpressed and functionally significant in various cancers, including melanoma and colorectal carcinoma. For instance, high MMP-13 levels have been correlated with metastasis and poor survival in melanoma patients. In colorectal cancer, elevated MMP-13 activity has been observed in tumors compared to normal mucosa, and its expression is associated with a worse prognosis. Based on computational studies, four out of the eleven designed compounds showing the most promising predicted activity against MMP-13 were selected for biological evaluation. For the MTT assay, NHDF cells were used as the healthy reference cell line, while A375 (melanoma) and HT-29 (colorectal adenocarcinoma cancer) cell lines were chosen as cancer models.
Experiments were conducted using two cancer cell lines and, as a control, a normal human dermal fibroblasts (NHDF; ATCC PCS-201-012). The A375 cell line (human melanoma, ATCC CRL-1619), and HT-29 cell line (human colorectal adenocarcinoma, ATCC HTB-38) were cultured in DMEM (Dulbecco’s Modified Eagle Medium, Institute of Immunology and Experimental Therapy (IITD), Wrocław, Poland) supplemented with 1% antibiotics (10 U/mL penicillin and 10 µg/mL streptomycin, Sigma-Aldrich, St Louis, MO, USA), 1% glutamine (Sigma-Aldrich, St Louis, MO, USA) and 10% fetal bovine serum (FBS, Gibco, Grand Island, NY, USA). For NHDF cultures, α-MEM (α-Minimum Essentials Medium, Institute of Immunology and Experimental Therapy (IITD), Poland) was used with the same supplement combination as for the cancer cell lines. All cells were maintained in a humidified incubator (INCO 105, Memmert GmbH, Schwabach, Germany) at 37 °C with 5% CO2 and 95% humidity. Cells were passaged routinely by trypsinization (twice a week). For the MTT (3-(4,5-simethylthiazol-2,5-diphenyltetrazolinum bromide), Sigma, St. Louis, MO, USA) assay, cells were used after 2–4 passages, when they reached approximately 80% confluence.
as §1
The MTT assay was performed in 96-well plates, with a seeding density of 1 × 10^4 cells per well. All cell lines were incubated for 24 h in their respective media: α-MEM for (NHDF cells) and DMEM for (A375 and HT-29) cells. After incubation, the medium was removed and replaced with fresh medium containing the tested compounds at concentrations ranging from 0.004 mM to 0.5 mM. […] Absorbance was measured spectrophotometrically at a wavelength of 570 nm using a BioTek SYNERGY H1 microplate reader (Agilent, Santa Clara, CA, USA).

MMP-8 = target: T1, MMP-8 (Homo sapiens, UniProt P22894); experiment: MMP-8 inhibitory screening assay kit (fluorometric); assay type: biochemical; conditions: single-point screening; same concentrations, 1.8 to 4.6 µM
T1 construct: purchased Abcam ab139453
Description: (§2) The inhibitory activity of the designed compounds against MMP-13 was evaluated using a commercial fluorometric MMP-13 inhibitor assay kit (Abcam, Cambridge, UK), following the manufacturer’s protocol. Solutions of the tested compounds were prepared at concentrations ranging from 1.8 to 4.6 µM. N-isobutyl-N-(4-methoxyphenylsulfonyl)glycyl hydroxamic acid (NNGH), a broad-spectrum inhibitor of matrix metalloproteinases, was used as positive control. […] In parallel, MMP-8 inhibition assays were also conducted using the same concentrations of compounds 3b, 3c, 3d, and 3g.
(§3) It should be emphasized that these assays were performed as single-point screening experiments, optimized for rapid qualitative assessment rather than full kinetic characterization. Consequently, the observed differences in activity between MMP-13 and MMP-8 are indicative trends supporting the selectivity predicted by computational studies, including docking, molecular dynamics simulations, and binding free energy calculations, rather than providing definitive quantitative evidence.
(§4) The inhibitory activity of the tested compounds was evaluated using the MMP-13 inhibitor screening assay kit (fluorometric) (Abcam, ab139451). The assay performed according to the manufacturer’s instructions. The designed compounds were tested at concentrations ranging from 1.8 to 4.6 µM, to determine their inhibitory activity. […]

MMP-13 = target: T2, MMP-13 (Homo sapiens, UniProt P45452); experiment: MMP-13 inhibitor screening assay kit (fluorometric); assay type: biochemical; conditions: single-point screening; tested compounds 1.8 to 4.6 µM
T2 construct: purchased Abcam ab139451
Description: as §2, §3, §4

T1 sequence (P22894 101-467): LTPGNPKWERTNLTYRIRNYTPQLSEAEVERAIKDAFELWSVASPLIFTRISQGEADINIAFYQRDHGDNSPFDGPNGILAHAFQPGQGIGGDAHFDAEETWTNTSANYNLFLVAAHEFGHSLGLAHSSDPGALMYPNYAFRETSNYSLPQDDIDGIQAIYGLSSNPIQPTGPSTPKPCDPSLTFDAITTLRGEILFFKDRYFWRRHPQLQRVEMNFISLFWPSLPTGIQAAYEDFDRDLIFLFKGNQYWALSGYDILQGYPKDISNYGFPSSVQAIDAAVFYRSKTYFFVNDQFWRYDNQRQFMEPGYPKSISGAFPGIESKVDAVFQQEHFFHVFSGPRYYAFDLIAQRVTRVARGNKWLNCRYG

| SMILES | solubility [1] | viability at 24 h (MTT assay, NHDF) | MMP-8 activity inhibition (MMP-8) | MMP-13 activity inhibition (MMP-13) |
| --- | --- | --- | --- | --- |
| Cc1cc(C)c(C(=O)NCC(=O)NCc2ccc(Cl)cc2)c(S)n1 [Compound 3c, N-{2-[(4-chlorobenzyl)amino]-2-oxoethyl}-4,6-dimethyl-2-sulfanylpyridine-3-carboxamide] | low solubility | – | – | – |
| Cc1cc(C)c(C(=O)NCC(=O)NCc2ccccc2Cl)c(S)n1 [Compound 3d, N-{2-[(2-chlorobenzyl)amino]-2-oxoethyl}-4,6-dimethyl-2-sulfanylpyridine-3-carboxamide] | low solubility | > 63% | – | – |
| Cc1cc(C)c(C(=O)NCC(=O)NCc2ccccc2)c(S)n1 [Compound 3g, 4,6-dimethyl-N-[2-(benzylamino)-2-oxoethyl]-2-sulfanylpyridine-3-carboxamide] | – | – | slight inhibitory activity | most pronounced inhibitory effect |
